Structures are written as SMILES.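 Tested at 5 concentrations; 48 h exposure; 96-well plates; endpoints linearly interpolated, else capped at highest concentration. GI50 = concentration required for 50% inhibition of growth.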 The source made the active and inactive calls. No stated cut-off is given here; in the data, active = GI50 up to about 1.1 µM and inactive = higher. Bounds are passed on as bounds.

Holding throughout (test): NCI-60 cell line screen, 48 h
Assay [1] deals with 786-0.
The subject of assay [2] is CCRF-CEM.
The test system of assay [3] is COLO 205.
Assay [4] relates to EKVX.
The test system of assay [5] is HL-60.
Assay [6] deals with HOP-62.
Assay [7] relates to HOP-92.
The test system of assay [8] is IGROV-1.
In assay [9] the test system is KM12.
Assay [10] relates to LOX IMVI.
For assay [11], the system named is MCF7.
The test system of assay [12] is NCI-H226.
The subject of assay [13] is NCI-H23.
For assay [14], the system named is OVCAR-3.
Assay [15] deals with OVCAR-4.
For assay [16], the system named is OVCAR-5.
The test system of assay [17] is SK-MEL-28.
Assay [18] relates to SK-MEL-5.
Assay [19] has as its system T47D.
The subject of assay [20] is TK-10.

As to `O=C1CCSC(=S)N1c1ccc(Br)c(Cl)c1`, the GI50 is 24.4 µM (inactive) in assay [1]; 60.5 µM (inactive) in assay [2]; 20.2 µM (inactive) in assay [3]; 44.8 µM (inactive) in assay [4]; 26 µM (inactive) in assay [5]; 31.9 µM (inactive) in assay [6]. Further, the GI50 is 25.4 µM (inactive) in assay [7]; 24.8 µM (inactive) in [8]; 31.2 µM (inactive) in assay [9]; 22 µM (inactive) in assay [10]; 17.9 µM (inactive) in assay [11]; 27.3 µM (inactive) in assay [12]. For the same compound, the GI50 in [13] was 53.2 µM (inactive); in assay [14], 37.6 µM (inactive); in assay [15] it was 22.2 µM (inactive); in assay [16], 43.9 µM (inactive); in [17] it was 17.7 µM (inactive); in assay [18], 18.4 µM (inactive). Further, the GI50 in assay [19] was 14.9 µM (inactive); in assay [20], 30.2 µM (inactive).

Turning to `COC1(CC[C@H](C)COC2OC(CO)C(O)C(O)C2O)O[C@H]2C[C@H]3[C@@H]4CC=C5C[C@@H](OC6OC(CO)C(O)C(OC7OC(CO)C(O)C(O)C7O)C6OC6OC(C)C(O)C(O)C6O)CC[C@]5(C)[C@H]4CC[C@]3(C)[C@H]2[C@@H]1C` (stereo not given in full), the GI50 was 2.32 µM (inactive) in assay [1]; 3.17 µM (inactive) in assay [2]; 4.08 µM (inactive) in assay [3]; 15.9 µM (inactive) in assay [4]; 3.12 µM (inactive) in [5]; 5.51 µM (inactive) in [6]. The GI50 was 3.37 µM (inactive) in assay [7]; 3.73 µM (inactive) in assay [8]; 1.98 µM (inactive) in [9]; 2.68 µM (inactive) in [10]; 9.2 µM (inactive) in [11]; 6.49 µM (inactive) in assay [12]. Also, the GI50 in assay [13] was 6.52 µM (inactive); in assay [14], 16.7 µM (inactive); in assay [15] it was 5.28 µM (inactive); in assay [16] it was 6.07 µM (inactive); in assay [17], 2.31 µM (inactive); in [18] it was 5.27 µM (inactive). Besides, the GI50 was 2.61 µM (inactive) in [19] and 21.2 µM (inactive) in assay [20].

Regarding `Nc1nc(N)c2nn(-c3ccc(C(=O)O)cc3)nc2n1`, the GI50 in [1] is > 100 µM (inactive); in [2], > 100 µM (inactive); in assay [3] it was > 100 µM (inactive); in assay [4] it was > 100 µM (inactive); in assay [5], 72.1 µM (inactive); in [6], > 100 µM (inactive). Moreover, the GI50 in assay [7], in assay [8], in assay [9], in assay [10], in assay [11] and in assay [12] was > 100 µM (inactive) each time. For the same compound, the GI50 in [13], in [14], in assay [15], in [16], in [17] and in assay [18] was > 100 µM (inactive) in each case. The GI50 in assay [19] and in assay [20] was > 100 µM (inactive) each time.

As for `Cn1c2ccccc2n2c3ccccc3c3nnc(N)c-3c12`, the GI50 is 0.847 µM (active) in assay [1]; 37.3 µM (inactive) in assay [2]; 32.4 µM (inactive) in [3]; > 100 µM (inactive) in assay [4]; > 100 µM (inactive) in assay [5]; 9.2 µM (inactive) in assay [6]. The GI50 in assay [7] was 42.4 µM (inactive); in assay [8] it was > 100 µM (inactive); in assay [9], 61.5 µM (inactive); in assay [10], 57.7 µM (inactive); in [11], 19.2 µM (inactive); in [12] it was > 93.1 µM (inactive). The GI50 in [13] was 17.5 µM (inactive); in assay [14], 28.2 µM (inactive); in [15], 41 µM (inactive); in assay [16], > 100 µM (inactive); in assay [17], > 81.3 µM (inactive); in [18] it was 28.9 µM (inactive). Besides, the GI50 was 1.64 µM (inactive) in assay [19] and > 100 µM (inactive) in [20].

In the case of `CN1CCOC1(C)c1ccccc1` (stereo not given), the GI50 in [1], in [2], in [3], in [4], in assay [5] and in [6] was > 100 µM (inactive) each time. In addition, the GI50 in assay [7], in [8], in assay [9], in [10], in assay [11] and in [12] was > 100 µM (inactive) each time. Moreover, the GI50 in assay [13] is > 100 µM (inactive); in assay [14] it was > 100 µM (inactive); in assay [15], > 100 µM (inactive); in [16] it was > 100 µM (inactive); in assay [17], > 100 µM (inactive); in [18] it was > 26.1 µM (inactive). The GI50 in assay [19] and in assay [20] was > 100 µM (inactive) in each case.

As to `CC(=O)N1NC(c2ccccc2)=NC(=O)C1c1cc(C)c(O)c(C)c1` (stereo not given), the GI50 in [1] was 17.3 µM (inactive); in assay [2], > 100 µM (inactive); in assay [3], > 100 µM (inactive); in [4], 34 µM (inactive); in assay [5], > 100 µM (inactive); in assay [6], 16.2 µM (inactive). For the same compound, the GI50 in assay [7] is 19.8 µM (inactive); in assay [8], 26.9 µM (inactive); in assay [9] it was 36 µM (inactive); in assay [10], 36.3 µM (inactive); in assay [11], 21.2 µM (inactive); in [12] it was 23.9 µM (inactive). The GI50 is 24 µM (inactive) in assay [13]; 19.2 µM (inactive) in assay [14]; 19.8 µM (inactive) in [15]; 36.2 µM (inactive) in assay [16]; 54.6 µM (inactive) in assay [17]; 20.3 µM (inactive) in assay [18]. Besides, the GI50 in assay [19] is 22.4 µM (inactive); in assay [20] it was 20.6 µM (inactive).

`CC1(C)CN=C(Nc2ccc(F)cc2)S1`: the GI50 in assay [1], in [2], in assay [3], in assay [4], in [5] and in assay [6] was > 100 µM (inactive) each time. Also, the GI50 in assay [7] was 59.7 µM (inactive); in [8], > 100 µM (inactive); in assay [9], > 100 µM (inactive); in assay [10], > 100 µM (inactive); in assay [11], > 100 µM (inactive); in assay [12], > 100 µM (inactive). Besides, the GI50 in assay [13], in assay [14], in [15], in [16], in [17] and in assay [18] was > 100 µM (inactive) throughout. Besides, the GI50 in assay [19] and in [20] was > 100 µM (inactive) each time.

As for `O=[N+]([O-])c1cccc2nc3ccccc3c(NCCCCNc3c4ccccc4nc4cccc([N+](=O)[O-])c34)c12`, the GI50 is 0.0164 µM (active) in assay [1]; < 0.016 µM (active) in assay [2]; 0.0199 µM (active) in [3]; 0.104 µM (active) in assay [4]; < 0.01 µM (active) in assay [5]; 0.042 µM (active) in assay [6]. The GI50 in [7] was 0.0233 µM (active); in [8], 0.118 µM (active); in assay [9] it was 0.0401 µM (active); in assay [10], 0.0621 µM (active); in assay [11], 0.0216 µM (active); in assay [12], 0.144 µM (active). Besides, the GI50 in assay [13] was 0.0225 µM (active); in assay [14] it was 0.0395 µM (active); in assay [15] it was 0.0948 µM (active); in [16], 0.164 µM (active); in assay [17], 0.164 µM (active); in [18], 0.0365 µM (active). Also, the GI50 in assay [19] was 0.0491 µM (active); in assay [20] it was 0.0213 µM (active).

As for `O=C(O)c1cc(/C=C/c2ccc(O)c(O)c2)ccc1O`, the GI50 in assay [1] is > 100 µM (inactive); in assay [2], 24.5 µM (inactive); in assay [3], > 100 µM (inactive); in assay [4], > 100 µM (inactive); in [5], 30.7 µM (inactive); in [6], > 100 µM (inactive). The GI50 in [7] was > 100 µM (inactive); in assay [8], > 100 µM (inactive); in assay [9], > 100 µM (inactive); in assay [10] it was > 100 µM (inactive); in assay [11], 23.1 µM (inactive); in assay [12], > 100 µM (inactive). The GI50 in assay [13], in [14], in assay [15], in [16], in [17] and in assay [18] was > 100 µM (inactive) each time. The GI50 in assay [19] and in [20] was > 100 µM (inactive) each time.

In the case of `O=C1C(NS(=O)(=O)c2ccccc2)=C(n2ccnc2)C(=O)c2ccccc21`, the GI50 in assay [1], in assay [2], in [3], in assay [4], in [5] and in [6] was > 100 µM (inactive) in each case. The GI50 in assay [7], in assay [8], in assay [9], in assay [10], in assay [11] and in [12] was > 100 µM (inactive) in each case. Moreover, the GI50 in assay [13], in [14], in assay [15], in [16], in [17] and in [18] was > 100 µM (inactive) throughout. For the same compound, the GI50 in [19] was > 100 µM (inactive); in assay [20], 24.7 µM (inactive).

(Values after ChEMBL document CHEMBL1201862, “PubChem BioAssay data set” (2004).)
